Results on 1 molecule are retold here after ChEMBL document CHEMBL5154650, “Identification and optimization of biphenyl derivatives as novel tubulin inhibitors targeting colchicine-binding site overcoming multidrug resistance” (Eur J Med Chem, 2022).

Series [1] is described as follows: Resistant index, ratio IC50 for KB/VCR cells over IC50 for KB cells. The series is classed as functional.
The subject of another series is KB. Description: Antiproliferative activity against human KB cells measured after 72 hrs by SRB assay. Format: functional, cell-based. On the technique in general: The SRB assay estimates cell density from bound dye.
The test system of series [2] is 4T1. Put plainly: Antiproliferative activity against mouse 4T1 cells measured after 72 hrs by SRB assay. Format: functional, cell-based. The following applies: 4T1, 72 h.
Series [3] can be described thus: Resistant index, ratio IC50 for KB-V1 cells over IC50 for KB cells. Format: functional.
The test system of the next series is HeLa. Description: Antiproliferative activity against human HeLa cells measured after 72 hrs by SRB assay. The series is classed as functional, cell-based.
In a further series the test system is K562/Adr. Description: Antiproliferative activity against human K562/Adr cells measured after 72 hrs by SRB assay. Format: functional, cell-based.
The nature of series [4]: Antiproliferative activity against human MRC9 cells measured after 72 hrs by SRB assay. Format: functional, cell-based. The following applies: MRC9, 72 h.
The subject of the next series is K562. Description: Antiproliferative activity against human K562 cells measured after 72 hrs by SRB assay. The series is classed as functional, cell-based. The settings on record: K562, 72 h.
Series [5] concerns A549. Description: Induction of cell cycle arrest in human A549 cells assessed as accumulation at G2/M phase at 20 nM measured propidium iodide based flow cytometry analysis. Format: functional.
Series [6] is described as follows: Antiproliferative activity against human KB/VCR cells measured after 72 hrs by SRB assay. The series is classed as functional, cell-based.
The nature of series [7]: Resistant index, ratio IC50 for K562/Adr cells over IC50 for K562 cells. Format: functional.
A further series has as its system KB-V1. Description: Antiproliferative activity against human KB-V1 cells measured after 72 hrs by SRB assay. The series is classed as functional, cell-based. The following applies: KB-V1, 72 h.
Another series has as its system HL-60. Description: Antiproliferative activity against human HL-60 cells measured after 72 hrs by SRB assay. The series is classed as functional, cell-based. The settings on record: HL-60, 72 h.
The nature of series [8]: Toxicity in female BALB/c mouse xenografted with mouse 4T1 cells assessed as body weight loss at 5 mg/kg, ip administered every other day for 14 days and measured after 7 days. Format: organism-based. The following applies: in vivo, 336 h, time 14 day.
Another series has as its system THP-1. Put plainly: Antiproliferative activity against human THP-1 cells measured after 72 hrs by SRB assay. The settings on record: THP-1, 72 h. Format: functional, cell-based.
Series [9] deals with 4T1. Description: Antitumor activity against mouse 4T1 cells xenografted in female BALB/c mouse assessed as T/C at 5 mg/kg, ip administered every other day for 14 days. Format: functional. The settings on record: time 14 day.
The nature of series [10]: Metabolic stability in human liver microsomes assessed as intrinsic clearance at 1 uM in presence of NADPH measured by LC-MS/MS analysis. The series is classed as ADME, Microsome. Background: Liver microsomes are a subcellular fraction often used to study metabolism.
The subject of another series is RAW264.7. Description: Antiproliferative activity against mouse RAW264.7 cells measured after 72 hrs by SRB assay. The following applies: RAW264.7, 72 h. The series is classed as functional, cell-based.
The subject of the next series is HT-1080. Put plainly: Antiproliferative activity against human HT-1080 cells measured after 72 hrs by SRB assay. Format: functional, cell-based. The following applies: HT-1080, 72 h.
Series [11] deals with A549. Put plainly: Antiproliferative activity against human A549 cells measured after 72 hrs by SRB assay. Format: functional, cell-based. The settings on record: Homo sapiens, A549, 72 h.

By IC50 is commonly meant the concentration needed to halve the response being measured. High values mean weaker potency in that assay, low ones greater potency in that assay. In general, T/C refers to the result in the treated group divided by that in the control group, in per cent. Turning to `COc1cc(C#N)cc(-c2ccc(C(=O)c3ccccc3)c(N)c2)c1.Cl`, the results for the “Ratio IC50” value in [1], in series [3] and in [7] were 1, 1 and 0.9, respectively. Further, the IC50 came out at 6.3 nM in the series with KB; 7.7 nM in the series with 4T1 [2]; 4.2 nM in the series with HeLa; 7.1 nM in the series with K562/Adr; 166 nM in series [4]; 7.8 nM with K562. For the same molecule, the IC50 in series [6] is 6.1 nM; in the series with KB-V1, 6.3 nM; in the series on HL-60, 6.8 nM; in the series on THP-1, 7.4 nM; with RAW264.7, 7.6 nM; in the series with HT-1080, 6.3 nM. The concentration for half-maximal inhibition (IC50) in the series with A549 [11] turned out to be 5 nM. Also, the Activity in the series with A549 [5] was 90%; in series [8], “Non-Toxic”. In addition, the T/C with 4T1 [9] is reported as 29.9%. In addition, in series [10], the CLH is 0.581 mL/min/g.
